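Method: 48-hour compound exposure of cells in 96-well plates, five concentrations, linear interpolation of endpoints. At the GI50, growth is halved. The concentration for full growth arrest is given as TGI.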

Eight molecules from PubChem BioAssay (NCI) can be followed below.

Some test systems named below: SNB-75 CNS; MCF7 breast; OVCAR-8 ovarian; COLO 205 colon; RPMI-8226 leukemia; NCI-H522 lung; HOP-92 NSCLC; IGROV1 ovarian; SK-MEL-5 melanoma; SR leukemia.
What all share (experiment): growth of human tumour cells (NCI), 48 h

Consider `CC(=O)Oc1cccc2c1C(=O)C(Br)(Br)CCC2`, for which the TGI amounted to 16.5 µM with SNB-75 CNS; 5.71 µM in the assay with MCF7 breast; 13 µM in the assay on OVCAR-8 ovarian; 17.2 µM in the assay with COLO 205 colon; 7.34 µM in the assay with RPMI-8226 leukemia; 4.55 µM in the assay on NCI-H522 lung. Also, the TGI is 10.4 µM in the assay with HOP-92 NSCLC, 30.6 µM in the assay on IGROV1 ovarian, 14.4 µM in the assay with SK-MEL-5 melanoma and 8.19 µM with SR leukemia.

Consider `COc1ccc(C2=C(c3cn(C)c4ccccc34)C(=O)NC2=O)cc1OC`, for which the GI50 was 0.743 µM in the assay on SNB-75 CNS; 5.75 µM with MCF7 breast; 15.6 µM with OVCAR-8 ovarian; 5.57 µM with COLO 205 colon; 9.61 µM with RPMI-8226 leukemia; 7.65 µM with NCI-H522 lung. Moreover, the GI50 in the assay with HOP-92 NSCLC was greater than 12.4 µM; with IGROV1 ovarian, 7.99 µM; in the assay with SK-MEL-5 melanoma, 6.11 µM; in the assay with SR leukemia, 2.48 µM. Also, the TGI was 7.08 µM in the assay on SNB-75 CNS; greater than 25 µM in the assay with MCF7 breast; greater than 25 µM in the assay on OVCAR-8 ovarian; greater than 20.3 µM in the assay with COLO 205 colon; greater than 25 µM with RPMI-8226 leukemia; greater than 21.9 µM in the assay with NCI-H522 lung. In addition, the TGI with HOP-92 NSCLC was greater than 25 µM; with IGROV1 ovarian, greater than 25 µM; in the assay on SK-MEL-5 melanoma, greater than 22.3 µM; in the assay with SR leukemia it was greater than 25 µM.

As to `N#CSCC1CC(O)(c2ccccc2)C(c2ccccc2)C(c2ccc(F)cc2)O1` (stereo not drawn), the GI50 in the assay on SNB-75 CNS was 7.63 µM; in the assay with MCF7 breast, 2.8 µM; in the assay on OVCAR-8 ovarian, 3.18 µM; with COLO 205 colon, 3.13 µM; in the assay with RPMI-8226 leukemia it was 1.67 µM; in the assay with NCI-H522 lung it was 2.4 µM. Besides, the GI50 in the assay on HOP-92 NSCLC was 2.13 µM; in the assay on IGROV1 ovarian it was 1.69 µM; in the assay on SK-MEL-5 melanoma it was 4.84 µM; with SR leukemia it was 0.344 µM. Further, the TGI came to 45.2 µM with SNB-75 CNS; 11.6 µM with MCF7 breast; 11 µM in the assay on OVCAR-8 ovarian; 9.97 µM in the assay with COLO 205 colon; 7.03 µM in the assay on RPMI-8226 leukemia; 7.24 µM with NCI-H522 lung. Moreover, the TGI in the assay on HOP-92 NSCLC was found to be 7.88 µM; in the assay on IGROV1 ovarian, 7.6 µM; in the assay with SK-MEL-5 melanoma, 17.2 µM; in the assay on SR leukemia, 3.02 µM.

`COc1ccc(/C=C(\C#N)c2cc(OC)c3c(c2)OCO3)cc1`: the GI50 with SNB-75 CNS was 0.0102 µM; with MCF7 breast it was less than 0.0118 µM; in the assay with OVCAR-8 ovarian, 0.026 µM; in the assay on COLO 205 colon it was less than 0.0124 µM; with RPMI-8226 leukemia, 0.019 µM; in the assay with NCI-H522 lung, less than 0.01 µM. The GI50 was 8.09 µM in the assay with HOP-92 NSCLC, 0.0212 µM in the assay with IGROV1 ovarian, 0.0101 µM with SK-MEL-5 melanoma and less than 0.01 µM in the assay on SR leukemia. Also, the TGI was found to be 19.8 µM in the assay with MCF7 breast; 34.5 µM in the assay on OVCAR-8 ovarian; 0.0521 µM in the assay on COLO 205 colon; 27 µM in the assay with RPMI-8226 leukemia; 52.2 µM with HOP-92 NSCLC; 32 µM with IGROV1 ovarian. Besides, the TGI is 0.245 µM in the assay with SK-MEL-5 melanoma and greater than 100 µM in the assay on SR leukemia.

Consider `Cc1nn2c(/C=C3/C(=O)Nc4ccc(Cl)cc43)c(-c3ccccc3)nc2s1`, for which the GI50 in the assay with SNB-75 CNS is 1.19 µM; with MCF7 breast it was 3.85 µM; with OVCAR-8 ovarian it was 2.19 µM; with COLO 205 colon, 3.9 µM; in the assay with RPMI-8226 leukemia it was 2.94 µM; in the assay with NCI-H522 lung it was 4.26 µM. In addition, the GI50 in the assay on HOP-92 NSCLC is 0.58 µM; in the assay on IGROV1 ovarian, 1.51 µM; in the assay with SK-MEL-5 melanoma, 4.07 µM; with SR leukemia, 3.5 µM. The TGI in the assay with SNB-75 CNS is 2.69 µM; in the assay with MCF7 breast, 25 µM; in the assay with OVCAR-8 ovarian, 5.76 µM; in the assay with COLO 205 colon it was 13.5 µM; in the assay with RPMI-8226 leukemia, 22.1 µM; with NCI-H522 lung, 17.9 µM. In addition, the TGI was 3.06 µM in the assay with HOP-92 NSCLC, 10.2 µM in the assay with IGROV1 ovarian, 23.2 µM with SK-MEL-5 melanoma and greater than 100 µM in the assay on SR leukemia.

As for `Cn1c2ccccc2c2nnc(N/N=C/c3ccccn3)nc21`, the GI50 is 1.09 µM in the assay with SNB-75 CNS; 0.285 µM in the assay with MCF7 breast; 0.426 µM in the assay on OVCAR-8 ovarian; 0.401 µM with COLO 205 colon; 0.367 µM in the assay on RPMI-8226 leukemia; 0.574 µM in the assay with NCI-H522 lung. Moreover, the GI50 in the assay with HOP-92 NSCLC was 0.413 µM; with IGROV1 ovarian, 0.44 µM; in the assay with SK-MEL-5 melanoma, 0.24 µM; with SR leukemia, 0.23 µM. In addition, the TGI was 6.78 µM with SNB-75 CNS; 6.59 µM with MCF7 breast; greater than 84.2 µM with OVCAR-8 ovarian; 18.5 µM with COLO 205 colon; 16.6 µM in the assay with RPMI-8226 leukemia; 33 µM in the assay on NCI-H522 lung. The TGI is greater than 59.1 µM in the assay on HOP-92 NSCLC, greater than 23.6 µM in the assay with IGROV1 ovarian, 0.806 µM in the assay on SK-MEL-5 melanoma and greater than 100 µM with SR leukemia.

In the case of `C=C1C(=O)O[C@@H]2C[C@@H](C)[C@@H]3[C@@H](OC4OC(COC(C)=O)C(O)C(O)C4O)CC(=O)[C@@]3(C)C[C@H]12` (stereo partly drawn), the TGI in the assay on SNB-75 CNS turned out to be 15.3 µM; in the assay on MCF7 breast, 2.19 µM; in the assay with OVCAR-8 ovarian it was 3.7 µM; in the assay on COLO 205 colon, 1.88 µM; with RPMI-8226 leukemia, 8.53 µM; in the assay with NCI-H522 lung it was 0.301 µM. Further, the TGI in the assay with HOP-92 NSCLC was found to be 2.15 µM; in the assay with IGROV1 ovarian, 6.2 µM; in the assay on SK-MEL-5 melanoma, 4.86 µM; in the assay on SR leukemia, 7.53 µM.

Consider `CCOc1cc2ncc(C#N)c(Nc3ccc(F)c(Cl)c3)c2cc1NC(=O)/C=C/CN(C)C`, for which the GI50 in the assay on SNB-75 CNS is 0.228 µM; in the assay on MCF7 breast, 1.23 µM; with OVCAR-8 ovarian, 0.295 µM; with COLO 205 colon, 1.33 µM; in the assay on RPMI-8226 leukemia it was 1.04 µM; with NCI-H522 lung it was 0.0231 µM. Besides, the GI50 was 0.254 µM in the assay with HOP-92 NSCLC, 0.0269 µM in the assay on IGROV1 ovarian, 2.93 µM with SK-MEL-5 melanoma and 0.414 µM in the assay on SR leukemia. In addition, the TGI with SNB-75 CNS was greater than 3.71 µM; in the assay with MCF7 breast, 5.56 µM; with OVCAR-8 ovarian it was greater than 9.22 µM; with COLO 205 colon, 2.83 µM; with RPMI-8226 leukemia, 3.33 µM; with NCI-H522 lung it was 0.732 µM. In addition, the TGI in the assay with HOP-92 NSCLC was greater than 4.39 µM; in the assay on IGROV1 ovarian, 0.466 µM; in the assay on SK-MEL-5 melanoma, greater than 10 µM; in the assay with SR leukemia it was 2.4 µM.
